Reference: patent publication US20260374818A1, “CATIONIC PEPTIDES WITH BROAD SPECTRUM ACTIVITY” (priority 2023, published 2026)
Where a SMILES comes first, the peptide text is derived from it. [ ]: non-standard residue; d: D form.

Experiments:
[1] = system: PAO1 biofilms on human skin organoid; assay: Skin organoid biofilm infection model, peptide solution, PAO1; type: cell-based, Pseudomonas aeruginosa; settings: peptide solution 4 hrs (FIG. 3B)
MRSA preformed biofilms = assay: Biofilm eradication of 24-hr preformed biofilms (TTC metabolic dye), MRSA; type: cell-based, methicillin resistant Staphylococcus aureus; settings: 24-hr preformed biofilms treated overnight
MRSA USA300 biofilms = assay: Biofilm inhibition by >95% pure peptides (crystal violet), MRSA; type: cell-based, methicillin resistant Staphylococcus aureus; settings: MRSA, 24 hours
[2] = system: MRSA biofilms on N/TERT epithelial skin; assay: Skin organoid biofilm model, peptide-loaded collagen dressings, MRSA; type: cell-based, methicillin resistant Staphylococcus aureus; settings: compared to DJK-5 and ciprofloxacin
P. aeruginosa LESB58 = assay: Murine model of abscess infections; type: in vivo, murine; Pseudomonas aeruginosa
[3] = system: 3-day-old oral plaque (multispecies) biofilms; assay: Oral plaque biofilm model, long-term (1-3 days) exposure, dead cell volume; type: cell-based; settings: for Proportion of dead biofilm cells: daily for 3 days, compared to DJK5 (FIG. 16A)
[4] = system: P. aeruginosa PAO1 biofilms
[5] = system: P. aeruginosa biofilms on N/TERT epithelial skin; assay: Skin organoid biofilm model, peptide-loaded collagen dressings, P. aeruginosa; type: cell-based, Pseudomonas aeruginosa; settings: compared to DJK-5 and ciprofloxacin
[6] = system: MRSA biofilms on human skin organoid; assay: Skin organoid biofilm infection model, peptide solution, MRSA; type: cell-based, methicillin resistant Staphylococcus aureus; settings: peptide solution 4 hrs (FIG. 3A)
[7] = system: human bronchiolar epithelial cells (HBEs); assay: Cytotoxicity (LDH release), human bronchiolar epithelial cells
[8] = Peptide aggregation in RPMI + 10% FBS with PBMCs (microscopy); type: physicochemical; settings: 50 μg/ml, overnight
How it was run: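 Peptides added to human PBMCs in RPMI with 10% FBS, incubated overnight at 37 °C, 5% CO2; aggregation assessed qualitatively by inverted light microscopy at 10× magnification.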

[9] = system: peripheral blood mononuclear cells (PBMCs); assay: Cytotoxicity (LDH release), PBMCs
N/TERT keratinocytes = assay: Cytotoxicity (LDH release), N/TERT keratinocytes
[10] = system: Enterobacter cloacae 218R1; assay: Biofilm inhibition (at least 80%), E. cloacae; type: cell-based; settings: E. cloacae 218R1; n = 3; BM2 minimal media; 18-24 hours; crystal violet
P. aeruginosa PAO1 = assay: Biofilm inhibition (at least 80%), P. aeruginosa; type: cell-based, Pseudomonas aeruginosa; settings: n = 4, BM2 minimal media, 18-24 hours, crystal violet
red blood cells = assay: Hemolysis; type: cell-based, human; settings: 4 hours
Description: Hemolysis: Peptide induced hemolysis was evaluated according to methods described previously [Hilchie, A. L., et al. (2016). Mastoparan is a membranolytic anti-cancer peptide that works synergistically with gemcitabine in a mouse model of mammary carcinoma. Biochimica Et Biophysica Acta, 1858(12), 3195-3204]. Briefly, red blood cells were obtained, with human ethics approval, from the blood of healthy volunteers collected in a sodium heparin tube and then rinsed three times in PBS, centrifuging between washes, to obtain the hematocrit (100% RBC). A 2.5% RBCs suspension was exposed to peptide at varying concentrations and incubated at 37 C in a 5% CO2 humidified atmosphere for 4 hours. Supernatants were collected following centrifugation (1100 rpm) and transferred to a flat bottom microtitre plate. The absorbance (490 nm) of each supernatant was measured on a BioTek Epoch Microplate Spectrophotometer. Percent hemolysis was calculated by comparing the absorbance arising from peptide treated cells to RBCs treated with […] (0% hemolysis) or lysed with 1% Triton X-100 (100% hemolysis).

[11] = system: 3-day-old oral plaque biofilms; assay: Oral plaque biofilm model, brief (1 minute) exposure, dead cell volume; type: cell-based; settings: 10 μg/mL, 1 minute (FIG. 11)
MRSA USA300 = assay: Biofilm inhibition (at least 80%), MRSA; type: cell-based, methicillin resistant Staphylococcus aureus; settings: n = 4, 10% TSB + 0.1% glucose, 18-24 hours, crystal violet
[12] = system: Enterococcus faecium #2-1; assay: Biofilm inhibition (at least 80%), E. faecium; type: cell-based; settings: E. faecium #2-1; n = 3; TSB + 1% glucose; 48 hours; crystal violet
[13] = system: Klebsiella pneumonia KPLN649; assay: Biofilm inhibition (at least 80%), K. pneumonia; type: cell-based; settings: K. pneumoniae KPLN649; n = 3; BM2 minimal media; 48 hours; crystal violet
E. coli O157:H7 = assay: Biofilm inhibition (at least 80%), E. coli; type: cell-based, Escherichia coli; settings: n = 3, BM2 minimal media, 18-24 hours, crystal violet
[14] = system: Acinetobacter baumannii Ab5075; assay: Biofilm inhibition (at least 80%), A. baumannii; type: cell-based; settings: n = 4, BM2 minimal media, 18-24 hours, crystal violet

SMILES: CC[C@@H](C)[C@@H](NC(=O)[C@@H](CCCNC(=N)N)NC(=O)[C@H](N)CCCCN)C(=O)N[C@H](CCCNC(=N)N)C(=O)N[C@H](Cc1c[nH]c2ccccc12)C(=O)N[C@@H](C(=O)N[C@@H](C(=O)N[C@H](CC(C)C)C(=O)N[C@H](CCCNC(=N)N)C(=O)N[C@@H](C(=O)N[C@@H](C(=O)N[C@H](CCCNC(=N)N)C(N)=O)[C@H](C)CC)C(C)C)[C@H](C)CC)C(C)C [AB101-D, krirwvilrvir-NH2] (H-[dK][dR][dI][dR][dW][dV][dI][dL][dR][dV][dI][dR]-NH2)
- Antibiofilm activity on skin organoid [1]: excellent antibiofilm activity
- IC50 (MRSA preformed biofilms): 1400 nM
- IC50 (MRSA USA300 biofilms): 270 nM
- Antibiofilm activity from collagen dressing [2]: clearly superior activity to both DJK-5 and ciprofloxacin
- Abscess size (P. aeruginosa LESB58): reduced abscess size
- Proportion of dead biofilm cells ([3]; 10 μg/ml): superior to DJK5 at killing bacteria cells
- Proportion of dead biofilm cells ([3]; 1 or 5 μg/ml): killed more of the biofilm cells
- Biofilm inhibition activity compared to DJK5 ([4]; P. aeruginosa): ≥ 4 fold
- IC50 ([4]; read-out: Biofilm Inhibition IC50, PAO1, 24 hours, crystal violet): 1100 nM
- Antibiofilm activity from collagen dressing [5]: clearly superior activity to both DJK-5 and ciprofloxacin
- Antibiofilm activity on skin organoid [6]: excellent antibiofilm activity
- Cytotoxicity (LDH) [7]: low toxicity
- Enhanced antibiofilm eradication activity (PAO1 preformed biofilms; P. aeruginosa, compared with DJK5): > 2 fold
- IC50 (PAO1 preformed biofilms; read-out: Biofilm Eradication IC50, PAO1, 24-hr preformed biofilms treated overnight, TTC): 1900 nM
- Peptide aggregation [8]: some small aggregates
- Cytotoxicity (LDH) [9]: low toxicity
- Cytotoxicity (LDH) (N/TERT keratinocytes): low toxicity

SMILES: CC[C@@H](C)[C@@H](NC(=O)[C@@H](C)NC(=O)[C@@H](CCCNC(=N)N)NC(=O)[C@@H](Cc1c[nH]c2ccccc12)NC(=O)[C@@H](CCC(N)=O)NC(=O)[C@H](N)C(C)C)C(=O)N[C@H](CCCNC(=N)N)C(=O)N[C@@H](C(=O)N[C@@H](C(=O)N[C@@H](C(=O)N[C@@H](C(=O)N[C@H](CCCNC(=N)N)C(N)=O)[C@H](C)CC)C(C)C)[C@H](C)CC)C(C)C [AB107-D, vqwrairvivir-NH2] (H-[dV][dQ][dW][dR][dA][dI][dR][dV][dI][dV][dI][dR]-NH2)
- Peptide/Antibiotic Concentration where at least 80% of biofilm growth was inhibited [10]: 1 µg/mL
- Peptide/Antibiotic Concentration where at least 80% of biofilm growth was inhibited (P. aeruginosa PAO1): 4 µg/mL
- Broad spectrum antibiofilm activity, more active than DJK5 (ESKAPEE Pathogens): 2-4 fold
- Hemolysis (red blood cells): non-toxic at all concentrations evaluated
- Killing of oral plaque biofilms, long-term exposure ([3]; 10 μg/mL, 1 or 3 days (FIG. 10)): significantly enhanced killing of the oral plaque biofilms
- Killing of oral plaque biofilms, brief exposure [11]: comparable to or better than peptide DJK-5
- Peptide/Antibiotic Concentration where at least 80% of biofilm growth was inhibited (MRSA USA300): 1 µg/mL
- Peptide/Antibiotic Concentration where at least 80% of biofilm growth was inhibited [12]: 1 µg/mL
- Cytotoxicity (LDH) [9]: non-toxic at all concentrations evaluated
- Peptide/Antibiotic Concentration where at least 80% of biofilm growth was inhibited [13]: 4 µg/mL
- Peptide/Antibiotic Concentration where at least 80% of biofilm growth was inhibited (E. coli O157:H7): 1 µg/mL
- Peptide/Antibiotic Concentration where at least 80% of biofilm growth was inhibited [14]: 1 µg/mL
